Test results reported in US20090155387A1, “STABLE PHARMACEUTICAL COMPOSITION COMPRISING BETA-LACTAM ANTIBIOTIC AND ION-CHELATING AGENT” (priority 2006, published 2009).

Assay: Amounts of β-lactam antibiotic, β-lactamase inhibitor and aminoglycoside antibiotic in solution over time (reverse-phase LC/HPLC)
Assay type: physicochemical
Procedure: The amounts of β-lactam antibiotics and β-lactamase inhibitor were determined using C18 reverse-phase LC and UV-VIS detector (Tianjin […] Co., Ltd., analysis method No. HM-K-03). The content of aminoglycoside antibiotics was measured using reverse-phase HPLC and evaporation-light-scattering detector (ELSD detector) (Tianjin […] Co., Ltd., analysis method No. HM-K-08). The amount of antibiotic component at each time point was expressed as a percentage with respect to the amount at the initial time. The relative amount of each antibiotic component in the composition at each time point was expressed as peak area ratio with respect to the corresponding peak area of an external standard.

CO/N=C(\C(=O)N[C@@H]1C(=O)N2C(C(=O)O)=C(CSc3nc(=O)c(=O)[nH]n3C)CS[C@H]12)c1csc(N)n1 [Ceftriaxone sodium]
amount (percentage of initial amount) (in Example 7 solution, pH 6.75, room temperature, 0 h): 97.01% | amount (percentage of initial amount) (in Example 7 solution, pH 6.75, room temperature, 1 h): 100.3% | amount (percentage of initial amount) (in Example 7 solution, pH 6.75, room temperature, 2 h): 96.40% | amount (percentage of initial amount) (in Example 7 solution, pH 6.75, room temperature, 4 h): 99.01% | amount (percentage of initial amount) (in Example 7 solution, pH 6.75, room temperature, 6 h): 98.91% | amount (percentage of initial amount) (in Example 7 solution, pH 6.75, room temperature, 8 h): 99.53% | amount (percentage of initial amount) (in Example 8 solution from freeze-dried powder stored 7 days at 0° C., redissolved in injectable water, 0 h): 98.75% | amount (percentage of initial amount) (in Example 8 solution from freeze-dried powder stored 7 days at 0° C., redissolved in injectable water, 1 h): 100.1% | amount (percentage of initial amount) (in Example 8 solution from freeze-dried powder stored 7 days at 0° C., redissolved in injectable water, 2 h): 99.97% | amount (percentage of initial amount) (in Example 8 solution from freeze-dried powder stored 7 days at 0° C., redissolved in injectable water, 4 h): 98.87% | amount (percentage of initial amount) (in Example 8 solution from freeze-dried powder stored 7 days at 0° C., redissolved in injectable water, 6 h): 99.27% | amount (percentage of initial amount) (in Example 8 solution from freeze-dried powder stored 7 days at 0° C., redissolved in injectable water, 8 h): 100.5% | amount (percentage of initial amount) (in Example 9 solution from freeze-dried powder stored 7 days at 0° C., redissolved in injectable water, 0 h): 92.24% | amount (percentage of initial amount) (in Example 9 solution from freeze-dried powder stored 7 days at 0° C., redissolved in injectable water, 1 h): 96.28% | amount (percentage of initial amount) (in Example 9 solution from freeze-dried powder stored 7 days at 0° C., redissolved in injectable water, 2 h): 94.97% | amount (percentage of initial amount) (in Example 9 solution from freeze-dried powder stored 7 days at 0° C., redissolved in injectable water, 4 h): 94.20% | amount (percentage of initial amount) (in Example 9 solution from freeze-dried powder stored 7 days at 0° C., redissolved in injectable water, 6 h): 97.91% | amount (percentage of initial amount) (in Example 9 solution from freeze-dried powder stored 7 days at 0° C., redissolved in injectable water, 8 h): 93.23% | amount (percentage of initial amount) (in Example 24 solution, pH 6.75, room temperature, 0 h): 110.2% | amount (percentage of initial amount) (in Example 24 solution, pH 6.75, room temperature, 1 h): 117.6% | amount (percentage of initial amount) (in Example 24 solution, pH 6.75, room temperature, 2 h): 119.4% | amount (percentage of initial amount) (in Example 24 solution, pH 6.75, room temperature, 4 h): 111.5% | amount (percentage of initial amount) (in Example 24 solution, pH 6.75, room temperature, 6 h): 113.4% | amount (percentage of initial amount) (in Example 24 solution, pH 6.75, room temperature, 8 h): 120.0%

CCN[C@@H]1C[C@H](N)[C@@H](O[C@H]2O[C@H](CN)CC[C@H]2N)[C@H](O)[C@H]1O[C@H]1OC[C@](C)(O)[C@H](NC)[C@H]1O [Etimicin]
amount (percentage of initial amount) (in Example 6 solution, pH 6.5, room temperature, 0 h): 108.9% | amount (percentage of initial amount) (in Example 6 solution, pH 6.5, room temperature, 1 h): 100.2% | amount (percentage of initial amount) (in Example 6 solution, pH 6.5, room temperature, 2 h): 100.5% | amount (percentage of initial amount) (in Example 6 solution, pH 6.5, room temperature, 4 h): 100.4% | amount (percentage of initial amount) (in Example 6 solution, pH 6.5, room temperature, 6 h): 100.4% | amount (percentage of initial amount) (in Example 6 solution, pH 6.5, room temperature, 8 h): 97.50% | amount (percentage of initial amount) (in Example 13 solution (Example 12 solution + etimicin sulfate), 0 h): 100% | amount (percentage of initial amount) (in Example 13 solution (Example 12 solution + etimicin sulfate), 1 h): 98.8% | amount (percentage of initial amount) (in Example 13 solution (Example 12 solution + etimicin sulfate), 2 h): 97.5% | amount (percentage of initial amount) (in Example 13 solution (Example 12 solution + etimicin sulfate), 4 h): 98.4% | amount (percentage of initial amount) (in Example 13 solution (Example 12 solution + etimicin sulfate), 6 h): 95.6% | amount (percentage of initial amount) (in Example 13 solution (Example 12 solution + etimicin sulfate), 8 h): 92.8% | amount (percentage of initial amount) (in Example 17 solution, pH 6.5, room temperature, 0 h): 100.1% | amount (percentage of initial amount) (in Example 17 solution, pH 6.5, room temperature, 1 h): 100.4% | amount (percentage of initial amount) (in Example 17 solution, pH 6.5, room temperature, 2 h): 99.31% | amount (percentage of initial amount) (in Example 17 solution, pH 6.5, room temperature, 4 h): 99.56% | amount (percentage of initial amount) (in Example 17 solution, pH 6.5, room temperature, 6 h): 99.61% | amount (percentage of initial amount) (in Example 17 solution, pH 6.5, room temperature, 8 h): 99.25% | amount (percentage of initial amount) (in Example 18 solution (2.5% fructose), pH 6.5, room temperature, 0 h): 100.1% | amount (percentage of initial amount) (in Example 18 solution (2.5% fructose), pH 6.5, room temperature, 1 h): 100.6% | amount (percentage of initial amount) (in Example 18 solution (2.5% fructose), pH 6.5, room temperature, 2 h): 99.79% | amount (percentage of initial amount) (in Example 23 solution (2.5% fructose), pH 6.75, room temperature, 0 h): 104.5% | amount (percentage of initial amount) (in Example 23 solution (2.5% fructose), pH 6.75, room temperature, 1 h): 99.13% | amount (percentage of initial amount) (in Example 23 solution (2.5% fructose), pH 6.75, room temperature, 2 h): 103.3% | amount (percentage of initial amount) (in Example 23 solution (2.5% fructose), pH 6.75, room temperature, 4 h): 98.75% | amount (percentage of initial amount) (in Example 23 solution (2.5% fructose), pH 6.75, room temperature, 6 h): 101.6% | amount (percentage of initial amount) (in Example 23 solution (2.5% fructose), pH 6.75, room temperature, 8 h): 96.42% | amount (percentage of initial amount) (in Example 26 solution (2.5% fructose), pH 6.75, room temperature, 0 h): 94.69% | amount (percentage of initial amount) (in Example 26 solution (2.5% fructose), pH 6.75, room temperature, 1 h): 102.9% | amount (percentage of initial amount) (in Example 26 solution (2.5% fructose), pH 6.75, room temperature, 2 h): 109.3% | amount (percentage of initial amount) (in Example 26 solution (2.5% fructose), pH 6.75, room temperature, 4 h): 108.8% | amount (percentage of initial amount) (in Example 26 solution (2.5% fructose), pH 6.75, room temperature, 6 h): 109.6% | amount (percentage of initial amount) (in Example 26 solution (2.5% fructose), pH 6.75, room temperature, 8 h): 105.2%

Gentamicin
amount (percentage of initial amount) (in Example 5 solution, pH 6.75, room temperature, 0 h): 101.7% | amount (percentage of initial amount) (in Example 5 solution, pH 6.75, room temperature, 1 h): 104.2% | amount (percentage of initial amount) (in Example 5 solution, pH 6.75, room temperature, 2 h): 96.1% | amount (percentage of initial amount) (in Example 5 solution, pH 6.75, room temperature, 4 h): 100.1%

NCC[C@H](O)C(=O)N[C@@H]1C[C@H](N)[C@@H](O[C@H]2O[C@H](CN)[C@@H](O)[C@H](O)[C@H]2O)[C@H](O)[C@H]1O[C@H]1O[C@H](CO)[C@@H](O)[C@H](N)[C@H]1O [Amikacin]
amount (percentage of initial amount) (in Example 19 solution, pH 6.75, room temperature, 0 h): 99.91% | amount (percentage of initial amount) (in Example 19 solution, pH 6.75, room temperature, 1 h): 99.50% | amount (percentage of initial amount) (in Example 19 solution, pH 6.75, room temperature, 2 h): 98.88% | amount (percentage of initial amount) (in Example 19 solution, pH 6.75, room temperature, 4 h): 99.45% | amount (percentage of initial amount) (in Example 19 solution, pH 6.75, room temperature, 6 h): 98.56% | amount (percentage of initial amount) (in Example 19 solution, pH 6.75, room temperature, 8 h): 99.36% | amount (percentage of initial amount) (in Example 20 solution (no EDTA), pH 6.75, room temperature, 0 h): 95.98% | amount (percentage of initial amount) (in Example 20 solution (no EDTA), pH 6.75, room temperature, 1 h): 91.49% | amount (percentage of initial amount) (in Example 20 solution (no EDTA), pH 6.75, room temperature, 2 h): 85.05% | amount (percentage of initial amount) (in Example 20 solution (no EDTA), pH 6.75, room temperature, 4 h): 91.00% | amount (percentage of initial amount) (in Example 20 solution (no EDTA), pH 6.75, room temperature, 6 h): 81.93% | amount (percentage of initial amount) (in Example 20 solution (no EDTA), pH 6.75, room temperature, 8 h): 89.98%
